For the test, the target named is T1, SIK3 (Homo sapiens, UniProt Q9Y2K2).
T1 construct: purchased Thermo Fisher Scientific (Life Technologies) SelectScreen
The experiment in a line: SelectScreen LanthaScreen. It is filed as binding. Conditions: 1 µM. The method, boiled down:
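Percent values come from Thermo SelectScreen profiling of NU5455, combining activity and binding assays. CSF1R was run in Z'LYTE format at Km app ATP, and CAMK1 in Adapta format with ATP listed at 10.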

Structures are written as SMILES.

T1 sequence (Q9Y2K2 whole entry): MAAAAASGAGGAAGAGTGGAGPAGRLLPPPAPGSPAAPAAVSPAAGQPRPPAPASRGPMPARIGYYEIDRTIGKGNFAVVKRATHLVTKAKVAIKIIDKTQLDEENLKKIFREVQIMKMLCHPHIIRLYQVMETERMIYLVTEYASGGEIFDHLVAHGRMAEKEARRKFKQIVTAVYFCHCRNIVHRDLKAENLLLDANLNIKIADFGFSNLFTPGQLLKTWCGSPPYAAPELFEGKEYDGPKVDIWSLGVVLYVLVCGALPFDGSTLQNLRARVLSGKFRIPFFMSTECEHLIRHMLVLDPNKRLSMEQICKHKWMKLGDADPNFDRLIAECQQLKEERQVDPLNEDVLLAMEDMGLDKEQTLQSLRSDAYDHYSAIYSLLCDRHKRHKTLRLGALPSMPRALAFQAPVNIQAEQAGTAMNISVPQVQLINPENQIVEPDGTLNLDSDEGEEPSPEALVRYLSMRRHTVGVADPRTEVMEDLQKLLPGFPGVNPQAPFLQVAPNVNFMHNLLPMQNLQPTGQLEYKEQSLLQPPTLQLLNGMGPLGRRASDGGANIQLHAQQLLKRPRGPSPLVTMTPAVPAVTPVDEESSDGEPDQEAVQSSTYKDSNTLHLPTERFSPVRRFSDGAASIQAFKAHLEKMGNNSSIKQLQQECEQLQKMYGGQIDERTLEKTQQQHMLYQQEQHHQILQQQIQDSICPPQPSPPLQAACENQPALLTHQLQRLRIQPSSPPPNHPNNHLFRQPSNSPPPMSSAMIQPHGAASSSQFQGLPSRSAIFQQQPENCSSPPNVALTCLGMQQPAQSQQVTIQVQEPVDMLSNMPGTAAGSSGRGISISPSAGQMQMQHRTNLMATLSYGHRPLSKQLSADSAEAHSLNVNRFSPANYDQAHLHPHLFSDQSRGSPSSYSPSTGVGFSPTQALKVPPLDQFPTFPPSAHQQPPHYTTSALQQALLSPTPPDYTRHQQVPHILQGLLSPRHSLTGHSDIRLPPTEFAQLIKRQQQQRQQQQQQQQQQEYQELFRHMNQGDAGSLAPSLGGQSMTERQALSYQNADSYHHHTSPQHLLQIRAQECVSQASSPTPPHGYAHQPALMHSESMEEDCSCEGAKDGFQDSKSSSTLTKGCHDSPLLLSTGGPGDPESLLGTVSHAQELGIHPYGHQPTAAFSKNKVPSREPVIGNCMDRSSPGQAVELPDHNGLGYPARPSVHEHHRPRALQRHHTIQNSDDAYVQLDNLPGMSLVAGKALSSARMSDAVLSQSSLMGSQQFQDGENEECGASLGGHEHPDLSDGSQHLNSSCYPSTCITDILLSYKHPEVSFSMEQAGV

Consider `CN(C(=O)CN1CCOCC1)c1ccc2sc3c(-c4cccc5c(=O)cc(N6CC7CCC(C6)O7)oc45)cccc3c2c1` [NU5455], for which the “% displacement” value is on record as 16.1%.

Values taken from publication PMC6934184, “Selective DNA-PKcs inhibition extends the therapeutic index of localized radiotherapy and chemotherapy” (The Journal of Clinical Investigation, 2019).
